Assay results published in ChEMBL document CHEMBL1201862, “PubChem BioAssay data set” (2004).
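Five concentrations, 48 hours, 96-well plates. GI50 = concentration required for 50% inhibition of growth.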 Active and inactive are the calls of the source. Rule as the data show it: active = GI50 up to about 1.1 µM and inactive = higher.

Key:
Assay in all cases: NCI anticancer screen, dose series, 48 h
TK-10 = system: TK-10
SK-OV-3 = system: SK-OV-3
PC-3 = system: PC-3
A498 = system: A498
K562 = system: K562
NCI-H460 = system: NCI-H460
UO-31 = system: UO-31
NCI-H226 = system: NCI-H226
HOP-92 = system: HOP-92
HCT-116 = system: HCT-116
OVCAR-5 = system: OVCAR-5
T47D = system: T47D
786-0 = system: 786-0
U-251 = system: U-251
NCI/ADR-RES = system: NCI/ADR-RES
CCRF-CEM = system: CCRF-CEM
Malme-3M = system: Malme-3M
SK-MEL-2 = system: SK-MEL-2

Measured: GI50

O=C(O/N=c1/ccc(=O)/c(=N\OC(=O)c2ccccc2)c1=O)c1ccccc1
inactive: TK-10 > 100 µM | SK-OV-3 > 100 µM | PC-3 76.4 µM | A498 > 100 µM | K562 39.4 µM | NCI-H460 > 100 µM | UO-31 > 100 µM | NCI-H226 > 100 µM | HOP-92 > 100 µM | HCT-116 > 100 µM | OVCAR-5 > 100 µM | T47D > 100 µM | 786-0 > 100 µM | U-251 > 100 µM | NCI/ADR-RES > 100 µM | CCRF-CEM 33 µM

CCOC(=O)c1cn(Cc2ccccc2)c(=O)n1Cc1ccccc1
inactive: TK-10 > 100 µM | SK-OV-3 > 100 µM | A498 > 100 µM | K562 52 µM | NCI-H460 > 100 µM | UO-31 48.9 µM | NCI-H226 > 100 µM | Malme-3M > 100 µM | HOP-92 > 100 µM | HCT-116 > 100 µM | OVCAR-5 > 100 µM | 786-0 > 100 µM | U-251 > 100 µM | SK-MEL-2 > 100 µM | CCRF-CEM 62.8 µM

O=C(/C(=C/c1ccc(Cl)cc1)c1ccccc1)c1ccccc1
inactive: TK-10 25.4 µM | SK-OV-3 23.9 µM | A498 23.6 µM | K562 27.4 µM | NCI-H460 17.7 µM | UO-31 27 µM | NCI-H226 17.1 µM | Malme-3M 17 µM | HOP-92 13.9 µM | HCT-116 13.6 µM | OVCAR-5 22.6 µM | 786-0 22.3 µM | U-251 17 µM | SK-MEL-2 20.4 µM | CCRF-CEM 32.4 µM

CCNC(=O)COc1ccc(Cl)c(C)c1
inactive: TK-10 > 100 µM | SK-OV-3 > 100 µM | A498 > 100 µM | K562 > 100 µM | NCI-H460 > 100 µM | UO-31 > 100 µM | NCI-H226 > 100 µM | Malme-3M > 100 µM | HOP-92 > 100 µM | HCT-116 > 100 µM | OVCAR-5 > 100 µM | 786-0 > 100 µM | U-251 > 100 µM | SK-MEL-2 > 100 µM | CCRF-CEM > 100 µM

Cn1ncc2ccc3[nH]c4ccccc4c(=O)c3c21
inactive: TK-10 21.1 µM | SK-OV-3 50.7 µM | A498 22.4 µM | K562 31.6 µM | NCI-H460 28.7 µM | UO-31 15 µM | NCI-H226 11.6 µM | Malme-3M 30.1 µM | HOP-92 37.8 µM | HCT-116 24.9 µM | OVCAR-5 33.6 µM | 786-0 36.5 µM | U-251 15.7 µM | SK-MEL-2 33.1 µM | CCRF-CEM 38.3 µM

COc1ccc2c(c1)C(=O)C1CC(=O)CCC21 (stereo unspecified)
inactive: TK-10 > 100 µM | SK-OV-3 > 100 µM | A498 > 100 µM | K562 > 100 µM | NCI-H460 > 100 µM | UO-31 > 100 µM | NCI-H226 > 100 µM | Malme-3M > 100 µM | HOP-92 > 100 µM | HCT-116 > 100 µM | OVCAR-5 > 100 µM | 786-0 > 100 µM | U-251 > 100 µM | SK-MEL-2 > 100 µM | CCRF-CEM > 100 µM

CC(C)(O)[C@@H]1CC[C@@]2(C)CCCC(O)C2(O)C1 (stereo partly specified)
inactive: TK-10 > 100 µM | SK-OV-3 > 100 µM | A498 > 100 µM | K562 > 100 µM | NCI-H460 > 100 µM | UO-31 > 100 µM | NCI-H226 > 100 µM | Malme-3M > 100 µM | HOP-92 > 100 µM | HCT-116 > 100 µM | OVCAR-5 > 100 µM | 786-0 > 100 µM | U-251 > 100 µM | SK-MEL-2 > 100 µM | CCRF-CEM > 100 µM
